No end group written: not given here.
Legend:
CaCO2 cells = assay: MTT cell viability assay, CaCO2; assay type: cell-based, human; conditions: synthetic peptide 100 µg/ml, 24 h, mean ± SD, n = 3
Experimental: (§1) CaCO2, HepG2, MCF-7, NCI-H460, SiHa, SW620, and Vero cells were obtained from the American Type Culture Collection (ATCC, Manassas, VA, USA). Cells were cultured in Dulbecco’s Modified Eagle’s Medium (DMEM; PAA, Pasching, Austria), supplemented with 10% (v/v) fetal bovine serum (Gibco, South America), 10 mM HEPES (HyClone, Utah, USA), 2 mM L-glutamine, and 100 U/mL penicillin and 100 µg/mL streptomycin. Cultures were maintained at 37 °C in a humidified atmosphere containing 5% CO₂.
(§2) The anticancer activity of protein hydrolysates and synthetic peptides against CaCO2, HepG2, MCF-7, NCI-H460, SiHa, SW620, and Vero cells were evaluated using the MTT assay. Cells were seeded into 96-well plates (Nunc™, Roskilde, Denmark) at a density of 2 × 10⁴ cells per well, and allowed to adhere. Following seeding, cells were treated with 100 µg/mL of protein hydrolysates or synthetic peptides for 24 h, while untreated cells served as controls. After 24 h, 20 µL of MTT solution (5 mg/mL; Sigma, St. Louis, MO, USA) was added to each well and incubated for an additional 3 h. The supernatant was then removed, and 100 µL of DMSO was added to each well to dissolve the formazan crystals. Optical density (OD) was measured at 540 nm using a microplate reader (Rayto RT-2100 C, China). Cell viability was calculated using the equation: (OD of treated cells/OD of untreated cells) × 100.
(§3) The IC50 values were calculated from a fitted semi-log response curve, plotting cell viability percentages against concentration. These values were determined using the AAT-Bioquest IC50 calculator (https://www.aatbio.com/tools/ic50-calculator).

HepG2 cells = assay: MTT cell viability assay, HepG2; assay type: cell-based, human; conditions: synthetic peptide 100 µg/ml, 24 h, mean ± SD, n = 3
Experimental: as §1, §2, §3

MCF-7 cells = assay: MTT cell viability assay, MCF-7; assay type: cell-based, human; conditions: synthetic peptide 100 µg/ml, 24 h, mean ± SD, n = 3
Experimental: as §1, §2, §3

NCI-H460 cells = assay: MTT cell viability assay, NCI-H460; assay type: cell-based, human; conditions: synthetic peptide 100 µg/ml, 24 h, mean ± SD
Experimental: as §1, §2, §3

SiHa cells = assay: MTT cell viability assay, SiHa; assay type: cell-based, human; conditions: synthetic peptide 100 µg/ml, 24 h, mean ± SD, n = 3
Experimental: as §1, §2, §3

SW620 cells = assay: MTT cell viability assay, SW620; assay type: cell-based, human; conditions: synthetic peptide 100 µg/ml, 24 h, mean ± SD
Experimental: as §1, §2, §3

Vero cells = assay: MTT cell viability assay, Vero; assay type: cell-based, monkey; conditions: synthetic peptide 100 µg/ml, 24 h, mean ± SD, n = 3
Experimental: as §1, §2, §3

[1] = system: angiotensin-converting enzyme (ACE); assay: ACE inhibitory activity assay (HHL substrate); assay type: biochemical; conditions: peptide 100 µg/ml, ACE 0.2 U/mL, 5 mM HHL, phosphate buffer pH 6.8, 37 °C, mean ± SD, n = 3; SD
Experimental: The method utilized here is a spectrophotometric method based on the commonly used method introduced by Cushman and Cheung (1971)[45]. The 5 ul of sample was preincubated with 45 ul of ACE enzyme (0.2 U/mL) in 100 mM Phosphate buffer (pH 6.8) and incubated for 10 min at 37 °C. Enzyme activity was assayed by monitoring the hydrolysis of hippuryl-L-histidyl-L-leucine (HHL). After adding 50 µL of a 5 mM HHL substrate solution, the increase in absorbance at 405 nm was measured every minute for 15 min at 37 °C using a 96-well microplate reader. The initial velocity was determined from the linear portion of the curve, and the inhibitory activity was expressed as a percentage calculated using the following equation:
% inhibition = (1-(B-b)/(A-a)) x 100,
where A is an initial velocity of the control reaction with enzyme (control), a is an initial velocity of the control reaction without enzyme (control blank), B is an initial velocity of the enzyme reaction with sample and b is an initial velocity of the reaction with sample but without enzyme (sample blank).

[2] = ABTS radical scavenging assay; assay type: physicochemical; conditions: peptide 100 µg/ml, 5 min in the dark, absorbance 750 nm, mean ± SD, n = 3
Experimental: Radical scavenging antioxidant activity was determined according to the ABTS radical scavenging activity following the method described by Re et al.[46] with slight modifications. Briefly, the solution of ABTS radical was prepared from the reaction between 7 mM ABTS (2,2-azino-bis (3-ethylbenzothiazoline-6-sulphonic acid) diammonium salt) and 2.45 mM ammonium persulphate. The resulting ABTS solution was diluted with distilled water to achieve an optical density of 0.7 at 750 nm. Then, a sample or standard of 10 µL was mixed with 190 µL of ABTS solution and incubated for 5 min in the dark. The absorbance was measured at 750 nm by a microplate reader (Rayto RT-2100 C, China). Ascorbic acid was used as the standard.

[3] = DPPH radical scavenging assay; assay type: physicochemical; conditions: peptide 100 µg/ml, 0.1 mM DPPH, 30 min in the dark, room temperature, absorbance 517 nm, mean ± SD, n = 3
Experimental: The DPPH radical scavenging activity of the sample was evaluated following the protocol by Muangrod et al.[48] with slight modifications. Briefly, 190 µL of 0.1 mM DPPH was mixed with 10 µL of the sample or standard ascorbic acid in each well and incubated at room temperature in the dark for 30 min. The absorbance of the mixture was measured at 517 nm using a microplate reader (Rayto RT-2100 C, China). Ascorbic acid was used as the standard. Results were expressed as micrograms ascorbic acid equivalent (µg AAE g^−1).

[4] = FRAP ferric ion-reducing antioxidant power assay; assay type: physicochemical; conditions: peptide 100 µg/ml, 30 min in the dark, absorbance 593 nm, mean ± SD, n = 3
Experimental: The ferric ion-reducing antioxidant power assay was analyzed according to the method by Rumpf et al.[47] with minor modifications. Briefly, the FRAP reagent was prepared from 300 mM sodium acetate (pH 3.6) and 10 mM TPTZ (2,4,6-tris (2-pyridyl)-s-triazine) in 40 mM HCl and 20 mM ferric chloride at the ratio of 10:1:1, respectively. Then, a 10 µL aliquot of the sample or standard was mixed with 190 µL of the FRAP reagent before incubating in the dark for 30 min. The absorbance was measured at 593 nm using a microplate reader (Rayto RT-2100 C, China). Ascorbic acid was used as the standard. Results were expressed as micrograms of ascorbic acid equivalent per gram (µg AAE g^−1).

RGSKQRQKRQW [RB-7]
Inhibitory percentage, CaCO2 (CaCO2 cells): 5.73±0.02%
Inhibitory percentage, HepG2 (HepG2 cells): 0%
Inhibitory percentage, MCF-7 (MCF-7 cells): 0%
Inhibitory percentage, NCI-H460 (NCI-H460 cells; n = 3, SD): 1.74±0.01%
Inhibitory percentage, SiHa (SiHa cells): 8.78±0.08%
Inhibitory percentage, SW620 (SW620 cells; n = 3, SD): 1.47±0.01%
Inhibitory percentage, Vero (Vero cells): 0%
Antihypertension (%), percentage inhibition of ACE [1]: 60.00±1.29%
Antioxidant, ABTS [2]: 507.53±13.49 µg ascorbic acid equivalent
Antioxidant, DPPH [3]: 805.35±5.83 µg ascorbic acid equivalent
Antioxidant, FRAP [4]: 187.50±1.88 µg ascorbic acid equivalent

RRLRILL [RB-6]
Inhibitory percentage, CaCO2 (CaCO2 cells): 19.32±0.18%
Inhibitory percentage, HepG2 (HepG2 cells): 0%
Inhibitory percentage, MCF-7 (MCF-7 cells): 0%
Inhibitory percentage, NCI-H460 (NCI-H460 cells; n = 3): 0%
Inhibitory percentage, SiHa (SiHa cells): 9.72±0.02%
Inhibitory percentage, SW620 (SW620 cells; n = 3): 0%
Inhibitory percentage, Vero (Vero cells): 0%
Antihypertension (%), percentage inhibition of ACE [1]: 46.67±0.36%
Antioxidant, ABTS [2]: 595.33±18.41 µg ascorbic acid equivalent
Antioxidant, DPPH [3]: 584.66±4.15 µg ascorbic acid equivalent
Antioxidant, FRAP [4]: 120.46±0.07 µg ascorbic acid equivalent

SPTPPKNVPF [RB-3]
Inhibitory percentage, CaCO2 (CaCO2 cells): 7.88±0.08%
Inhibitory percentage, HepG2 (HepG2 cells): 0%
Inhibitory percentage, MCF-7 (MCF-7 cells): 0%
Inhibitory percentage, NCI-H460 (NCI-H460 cells; n = 3): 0%
Inhibitory percentage, SiHa (SiHa cells): 12.36±0.02%
Inhibitory percentage, SW620 (SW620 cells; n = 3): 0%
Inhibitory percentage, Vero (Vero cells): 0%
Antihypertension (%), percentage inhibition of ACE [1]: 20.00±1.02%
Antioxidant, ABTS [2]: 274.73±0.27 µg ascorbic acid equivalent
Antioxidant, DPPH [3]: 227.13±1.55 µg ascorbic acid equivalent
Antioxidant, FRAP [4]: 58.05±0.09 µg ascorbic acid equivalent

— PMC12592418, “Therapeutic potential of red bean (phaseolus vulgaris) peptides: anticancer, antihypertension, and antioxidant activities” (Scientific Reports, 2025)
